Experimental findings from the METLIN SMRT retention time set (Domingo-Almenara et al. 2019) are described below.

Structures are written as SMILES.

The series is described as follows: gradient 5% acetonitrile 3 min, to 50% in 2 min, to 85% in 15 min, held 3 min, 100 µL/min. The note with it: column: Zorbax Extend-C18 2.1 x 50 mm; eluents: water / acetonitrile, 0.1% formic acid. The procedure, abridged: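 Retention time was recorded from adduct peaks, which were picked computationally and each inspected manually. Pure standards ran in mixtures of ~100 molecules on HPLC coupled to a quadrupole time-of-flight mass spectrometer, in positive and negative ionization mode, through a Zorbax Extend-C18 column (2.1 × 50 mm, 1.8 μm) at 100 μL/min. Eluents were water and acetonitrile, each with 0.1% formic acid.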
As for `O=C(C1=CN(c2ccc(C(F)(F)F)cc2)c2cc(F)ccc2S1(=O)=O)N1CCOCC1`, the RP-LC retention time worked out at 875 s.

Regarding `CCCc1noc(-c2nnn3c2COC(c2ccc(OC)cc2)C3)n1` (centres undefined), the RP-LC retention time came to 1010 s. `O=C(NCc1ccco1)C1CCN(c2nnc3ccc(C(F)(F)F)cn23)CC1` showed an RP-LC retention time of 715 s. In the case of `CSc1ccc(CNC(=O)c2cccc(-c3nc4cccnc4n3C)c2)cc1` it was 759 s; in that of `COCCC(=O)NCCC1CCN(C(=O)Nc2ccc(F)cc2F)CC1`, 643 s; in that of `COc1ccc(NC(=O)C2CCN(c3cncnc3N3CCCCC3)CC2)cc1`, 670 s.

Regarding `CO[C@@H]1[C@H](OC(=O)NC(=O)CCl)CC[C@]2(CO2)[C@H]1[C@@]1(C)O[C@@H]1CC=C(C)C`, the RP-LC retention time was 692 s. `Cc1ccc(-c2ncc(C(=O)Nc3cc(F)ccc3F)c(-c3ccncc3)n2)cc1` displayed an RP-LC retention time of 988 s. Compound `CCCCN1C(=O)CN(C2CCCCC2)C(=O)C1c1ccc(OC)c(OC)c1` (centres undefined) gave an RP-LC retention time of 877 s. Compound `Cc1cc(C)c2c(n1)SCC(=O)N2CC(=O)NCCN(C)C1CCCCC1` had an RP-LC retention time of 585 s. In the case of `Cn1nc(C(=O)NCc2cc(-c3cccs3)on2)ccc1=O` it was 650 s; in that of `COc1ccc(-c2ncn3c2C(=O)N(CC(=O)O)CC3)cc1`, 567 s. In the case of `CC(C)Cn1c(=O)c(N2CCN(C(=O)Cc3ccsc3)CC2)nc2ccncc21` it was 653 s; in that of `CCC(=O)CCCCC[C@@H]1NC(=O)[C@H]2CCCCN2C(=O)[C@H]([C@H](C)CC)NC(=O)[C@H](Cc2cn(OC)c3ccccc23)NC1=O`, 965 s; in that of `Cc1cc(C(=O)N2CCC3(CC2)C(=O)N(C)c2ccccc23)n(C)n1`, 724 s. In the case of `Cc1cc(C)cc(S(=O)(=O)N2CCN(CCc3cn(C)c4ncccc34)CC2)c1` it was 652 s.

On to `O=C(Cn1c(=O)n(C2CC2)c(=O)c2nscc21)NCc1cccs1`, for which the RP-LC retention time was found to be 670 s. In turn, `O=c1[nH]cc(S(=O)(=O)NC2CCCC2)c(=O)[nH]1` yielded an RP-LC retention time of 600 s. Regarding `O=C(NCc1cccs1)c1coc(NC(=O)c2ccco2)n1`, the RP-LC retention time amounted to 632 s. In turn, `COc1ccc(-c2nc3ncccn3c2NCc2ccc(C)cc2)cc1` had an RP-LC retention time of 756 s. Take `O=C(Cn1cccn1)NCc1ccc(OCc2ccccc2)cc1`: the RP-LC retention time was 776 s. In the case of `CS(=O)(=O)N[C@H]1C[C@@H]2C[C@H]1CN2C(=O)c1ccc(C(F)(F)F)s1` it was 663 s; in that of `Cc1ccc(-c2noc(-c3nc(-c4ccccn4)no3)n2)cc1`, 1090 s; in that of `COc1ccc(C(=O)N2CC(n3cc(COCC4CC4)nn3)C2)cc1F`, 620 s. `Cc1sc2ccn(CC(C)C)c(=O)c2c1C(=O)NCc1cc(F)ccc1F` showed an RP-LC retention time of 1040 s. In the case of `COc1ccc(NC(=O)CSc2cc(N3CCN(c4ccccc4OC)CC3)ncn2)c(OC)c1` it was 791 s; in that of `Cc1ccc(-c2nc(N)n(C(=O)C3CC3)n2)cc1`, 872 s; in that of `CCOC(=O)c1ccc(NC(=O)N2CC=C(c3cn(CC)c4ncccc34)CC2)cc1`, 606 s. Compound `COc1ccc(NC(=O)c2nnc(COCC(=O)N3CCN(c4ccccn4)CC3)s2)cc1` yielded an RP-LC retention time of 610 s. For `COCc1nnc(NS(=O)(=O)c2ccc([N+](=O)[O-])cc2)s1`, the RP-LC retention time is 702 s. In the case of `CC(=O)N1CCC(C2CCN(C(=O)CN3CCCC3=O)C2)CC1` (centres undefined), the RP-LC retention time is 580 s. For the compound `O=C(Nc1ccc(F)c(Cl)c1)N1CCN(CCn2c(-c3ccncc3)nc3cccnc32)CC1`, the RP-LC retention time was 627 s. Take `CC(=O)c1ccc(NC(=O)Cn2nc3c(N(C)C4CCCCC4)nccn3c2=O)cc1`: the RP-LC retention time came to 705 s. For the compound `Cc1nn(-c2ccc(F)cc2)c(C)c1S(=O)(=O)N1CCC(C(=O)NCC2CCCO2)CC1` (centres undefined), the RP-LC retention time turned out to be 742 s. In the case of `C=CC(=O)N1C/C(=C\c2ccccc2)C(=O)/C(=C/c2ccccc2)C1` it was 930 s; in that of `Cc1ccc(C2Cn3nnc(-c4nc(-c5cccc(Cl)c5)no4)c3CO2)c(C)c1` (centres undefined), 1400 s; in that of `Cc1ccccc1CNC(=O)C1(C)Oc2cccnc2N(C)C1=O` (centres undefined), 786 s. For the compound `CCCCC(=O)Nc1nc(-c2ccc3c(c2)NC(=O)CO3)c(C)s1`, the RP-LC retention time stood at 839 s.

For the compound `COc1ccc(CNC(=O)Cn2nc(C)c3sc(-c4ccccc4)nc3c2=O)cc1`, the RP-LC retention time was 846 s. In the case of `CCOc1ccccc1NC(=O)Cn1nc(N2CCC(C)CC2)c2ccccc2c1=O` it was 1290 s; in that of `O=C(Nc1cc(-c2ccccn2)no1)c1ccccc1Br`, 789 s.

With `COc1ccc(-c2cn3c(CC(=O)Nc4ccc(F)cc4Cl)csc3n2)cc1OC`, the RP-LC retention time was 766 s. As to `CCCc1cc(N2CCN(C(=O)c3cccnc3)CC2)nc2nnc(CC)n12`, the RP-LC retention time came out at 580 s. Turning to `O=S(=O)(c1ccc(-c2nnc(C3CC3)o2)o1)N1CCCCCC1`, the RP-LC retention time was found to be 898 s. `COc1ccc(-c2noc(-c3nn(-c4ccc(Cl)cc4)ccc3=O)n2)cc1` displayed an RP-LC retention time of 877 s. With `COc1ccc(OC)c(NS(=O)(=O)c2cc3c(s2)CCN(C(=O)C2CCC2)C3)c1`, the RP-LC retention time came out at 866 s. On to `Cc1cc(C)c(S(=O)(=O)N2CCCC2c2nc(-c3cccc(F)c3)no2)cc1C` (centres undefined), for which the RP-LC retention time was determined as 1270 s. `COCc1cc2nn(CC(=O)Nc3ccc(F)cc3)c(=O)n2c(-c2ccccc2)n1` returned an RP-LC retention time of 903 s. The compound `Cc1ccn2c(Nc3ccccc3C)c(-c3c(F)cccc3Cl)nc2c1` yielded an RP-LC retention time of 766 s.

The compound `O=C(NCCCn1nc(-c2ccco2)ccc1=O)Nc1ccc2c(c1)OCO2` had an RP-LC retention time of 678 s. In turn, `O=C(NCCc1c[nH]c2ccc(Cl)cc12)c1cccc(Cn2c(=O)c3cccn3c3cccnc32)c1` gave an RP-LC retention time of 981 s.

Compound `Cc1ccc(C)c(N2CCN(S(=O)(=O)c3cc(-c4nnc(C5CC5)o4)co3)CC2)c1` registered an RP-LC retention time of 1140 s. In the case of `O=C(Nc1ccc2c(c1)OCCO2)c1coc(NC(=O)C2CC2)n1` it was 643 s; in that of `Cn1c(CN2CCN(C(=O)COc3ccc(F)cc3)CC2)nc2ccccc21`, 581 s.

Regarding `Cc1ccc(CNC(=O)C2CCCN(c3cc(=O)n(C)c(=O)n3C)C2)o1` (centres undefined), the RP-LC retention time came to 583 s. In turn, `Cn1cc(-c2cc3n(n2)CCC(=O)N3CC(=O)NCc2ccccc2)c2ccccc21` yielded an RP-LC retention time of 798 s. As to `COC1CCC12CCN(C(=O)C1CCOCC1)CC2` (centres undefined), the RP-LC retention time came out at 636 s.

Regarding `O=C(Nc1ccccc1)N1CCC(N2C[C@H]3C[C@H](C2)[C@H]2CCCC(=O)N2C3)CC1`, the RP-LC retention time was determined as 590 s.

Compound `Cc1ccc(C)c(C(=O)Nc2cnn(-c3ncc(N(C)C)cn3)c2)c1` yielded an RP-LC retention time of 788 s. In the case of `Cc1nn(C(C)C(=O)NCCCN2CCCC2=O)c(=O)c2nn(-c3ccccc3)c(C)c12` (centres undefined) it was 648 s; in that of `C[C@@H](NCCCc1cccc(C(F)(F)F)c1)c1cccc2ccccc12`, 828 s.

The compound `CCCCC(=O)N1CCCN(C2=NS(=O)(=O)C(c3ccccc3)=C2C)CC1` gave an RP-LC retention time of 793 s.

In turn, `CCn1nnc2ccc(-c3noc(-c4ccc(OC)cc4)n3)cc21` came in with an RP-LC retention time of 1030 s. In turn, `CC1Cc2ccccc2N1C(=O)CSc1nnc(-c2ccccc2)o1` (centres undefined) had an RP-LC retention time of 1010 s. In turn, `Cc1nnc(-c2ccc3ccn(CC(=O)NCCC(C)C)c3c2)o1` registered an RP-LC retention time of 754 s. For the compound `Cc1nc(N2CCN(c3ccccn3)CC2)nc2c1C(=O)CC(c1ccccc1F)C2` (centres undefined), the RP-LC retention time is 735 s. Compound `Cc1ccc2nc(C(=O)N3CCN(c4ccccn4)CC3)cn2c1` had an RP-LC retention time of 538 s. With `O=C(Nc1cccc(F)c1)N1CCN(Cc2nc3cc(Cl)ccc3o2)CC1`, the RP-LC retention time was determined as 784 s. For the compound `CC1CCN(S(=O)(=O)c2nn(C)cc2C(=O)NCCc2cccs2)CC1`, the RP-LC retention time worked out at 952 s. Compound `Cc1ccc2c(c1)N(S(C)(=O)=O)CCC(C(=O)Nc1ccc(OC(C)C)cc1)O2` (centres undefined) displayed an RP-LC retention time of 976 s. In the case of `CN(CC1CCOC1)C(=O)c1cccc(Br)c1` (centres undefined) it was 718 s; in that of `Cc1nc2ccn(Cc3cccnc3)c(=O)c2cc1C(=O)NCc1ccc2c(c1)OCO2`, 592 s; in that of `COc1ccc(-c2nc3cnccn3c2Nc2ccc(C(=O)N3CCOCC3)cc2)cc1`, 664 s. Turning to `O=C(CCS(=O)(=O)c1ccccc1)N1CCCc2ccccc21`, the RP-LC retention time was 779 s. `Cc1ccc(S(=O)(=O)NCCc2cn(CC(C)C)c3ncccc23)cc1C` yielded an RP-LC retention time of 978 s. Consider `O=C1CC(c2nc(-c3cccnc3)no2)CN1c1ccc2c(c1)OCO2` (centres undefined), for which the RP-LC retention time was 728 s. Compound `CCN(CC)S(=O)(=O)c1ccc(C)c(-c2nnc(-c3ccccc3)o2)c1` yielded an RP-LC retention time of 1090 s.

For the compound `C=CCNc1ncnc2ccc(Br)cc12`, the RP-LC retention time worked out at 671 s. In the case of `CC(C)n1c(=O)oc2cc(-c3noc(-c4ccc(C(F)(F)F)cc4)n3)ccc21` it was 1310 s.
